According to patent US5250679A, “Nonpeptidyl platelet aggregation inhibitors having specificity for the GPIIb III receptor” (Genentech, Inc., priority 1992, dated 1993):
Where a name gives a salt, the structure may show the parent alone. Read-outs that look alike come from different tables or passages of the source.

Tests used:
GP IIb IIIa = target: T1, GP IIb IIIa (Homo sapiens, UniProt P05106+P08514); assay: Fibrinogen-GP IIb IIIa Receptor ELISA Binding Assay (Fg/IIbIIIa)
T1 construct: from tissue; host or cells: outdated human platelets
Protocol: Briefly, microtiter plates are coated with fibrinogen (10 mg/ml) and then blocked with TACTS buffer containing 0.5% bovine serum albumin (BSA). […] After another wash a goat anti-mouse IgG conjugated to horseradish peroxidase is added. […] The reaction is stopped with 1N sulfuric acid and the absorbance at 492 nm is recorded. […] Outdated human platelets are washed 3 times with 10 mM tris-HCl, 150 mM NaCl (TBS), 1 mM EDTA, pH 7.5, and centrifuged at 2000×g to pellet cells. […] The supernatant fraction is collected and the supernatant is loaded onto a concanavalin-A column, previously equilibrated in TBS, 1 mM Ca2 Cl2, 0.1% Triton, 0.05% NaN3 and eluted with 0.2M a-methylmannoside. Fractions are pooled and loaded onto a heparin-agarose column. The flowthrough is collected and concentrated on an Amicon YM 30 filter to a volume of approximately 5-10 ml. The concentrate is then applied to an S-300 column (500 ml) and 6 ml fractions are collected. The GP IIb IIIa containing fractions are collected, pooled, and stored at -80° C. […] The precipitate is spun down in appropriate size bottles at 2000×g. The supernatant is decanted and the precipitate resuspended in 150 mM NaCl (approximately 50% of the original volume). […] The suspension is spun down and the precipitate is resuspended in Tris-saline in a minimal volume (approximately 5% of the original volume). Any remaining insoluble material is spun down at 2000 rpm in a Sorval type centrifuge and the fibrinogen supernatant is decanted and dialyzed overnight at 4° C. against Tris-saline. Characterization of the fibrinogen is by the Bradford protein assay, SDS-PAGE, and/or Western blotting using well known standard procedures. Briefly, 96 well plates are coated (Type Nunc 1 MaxisorpTM) with 10 mg/ml purified fibrinogen ([…]), and allowed to stand overnight at 4° C. […] The plates are again washed three times with PBS/Tween and then […] of sample in TNCNT is added. The mixture is incubated for 15 minutes at room temperature on a plate shaker. […] Fifty ml of this diluted GP IIb IIIa is then added to each well and incubated on a plate shaker at room temperature. After one hour, the plates are washed four times with PBS/Tween and 100 ml of a polyclonal or monoclonal antibody specific for GP IIIa such as AP3 (1 mg/ml) (See e.g. […] After a one hour incubation at room temperature on a plate shaker, the samples are washed 4 times with PBS/Tween. […] The color develops within about 3 to 20 minutes and the reaction is stopped with 100 ml 1M H2 SO4. The optical density at 492 nm vs 405 nm is recorded and IC50 values are determined.

[1] = system: human platelet rich plasma (PRP); assay: In Vitro Human Platelet Aggregation Assay (PA); format: cell-based; details: Homo sapiens, Platelet
Protocol: In addition to the GPIIb IIIa ELISA assay, platelet aggregation assays may be performed in human platelet rich plasma (PRP). […] The blood is centrifuged at 160×g for 10 min at 22° C. and then allowed to stand for 5 min after which the PRP is decanted. Platelet poor plasma (PPP) is isolated from the remaining blood after centrifugation at 2000×g for 25 min. The platelet count of the PRP is adjusted to ca. 300,000 per microliter with PPP.
A 225 mL aliquot of PRP plus 25 mL of either a dilution of the test sample or a control (PBS) is incubated for 5 min in a Chrono-log Whole Blood Aggregometer at 25° C. An aggregating agent (collagen, 1 mg/ml; U46619, 100 ng/ml; or ADP, 8 mM) is added and the platelet aggregation recorded.
Platelet aggregation assays are performed in human platelet rich plasma (PRP). […] The blood is centrifuged at 160×g for 10 minutes at 22° C. and allowed to stand for 5 minutes after which the PRP is decanted. Platelet poor plasma (PPP) is isolated from the remaining blood after centrifugation at 2000×g for 25 minutes. The platelet count of the PRP is diluted to about 300,000 platelets per microliter with PPP.
A 225 ml aliquot of PRP plus 25 ml of either a dilution of the test inhibitor sample or a control (PBS) is incubated for 5 minutes in a Chrono-log Whole Blood Aggregometer at 25° C. An aggregating agent (collagen, 1 mg/ml; U46619, 100 ng/ml; or ADP, 17 mM) is added and the transmission is recorded.

[2] = Example 29, Cmpd # 1-105, read-out: IC50 Fg/IIbI
[3] = Example 30, G # table, read-out: IC50 (μM) Fg/IIbIIIa
[4] = citrate, read-out: PA IC50 (μM) (citrate)
[5] = Examples 29 and 30, Cmpd # tables, read-out: IC50 (μM) Fg/IIbIIIa

T1 sequence (P08514 32-887 limits assumed): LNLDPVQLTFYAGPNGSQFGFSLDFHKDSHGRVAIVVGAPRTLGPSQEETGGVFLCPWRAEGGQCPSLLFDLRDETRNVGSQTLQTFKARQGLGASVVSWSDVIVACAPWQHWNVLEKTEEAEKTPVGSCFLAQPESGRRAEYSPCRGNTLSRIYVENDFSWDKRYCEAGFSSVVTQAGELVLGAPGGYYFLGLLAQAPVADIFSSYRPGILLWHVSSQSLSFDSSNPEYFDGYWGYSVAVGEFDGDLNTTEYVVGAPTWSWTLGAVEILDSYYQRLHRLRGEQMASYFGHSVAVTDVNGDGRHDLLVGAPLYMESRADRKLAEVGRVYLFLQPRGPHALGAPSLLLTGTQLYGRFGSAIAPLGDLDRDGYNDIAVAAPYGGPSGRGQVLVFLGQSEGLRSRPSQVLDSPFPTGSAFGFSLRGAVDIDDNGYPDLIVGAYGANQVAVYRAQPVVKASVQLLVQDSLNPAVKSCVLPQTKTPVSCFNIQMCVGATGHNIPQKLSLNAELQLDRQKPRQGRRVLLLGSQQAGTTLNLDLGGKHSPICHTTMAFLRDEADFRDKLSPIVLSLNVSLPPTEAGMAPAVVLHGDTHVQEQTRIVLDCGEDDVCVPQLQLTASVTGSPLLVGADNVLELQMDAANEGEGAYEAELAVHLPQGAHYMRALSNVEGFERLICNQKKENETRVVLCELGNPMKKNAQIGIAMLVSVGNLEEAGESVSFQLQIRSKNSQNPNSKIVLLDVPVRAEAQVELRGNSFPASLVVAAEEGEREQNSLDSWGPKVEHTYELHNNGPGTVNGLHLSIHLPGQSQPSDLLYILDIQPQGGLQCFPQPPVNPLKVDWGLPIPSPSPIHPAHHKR
T1 sequence (P08514 891-1039 partner limits assumed): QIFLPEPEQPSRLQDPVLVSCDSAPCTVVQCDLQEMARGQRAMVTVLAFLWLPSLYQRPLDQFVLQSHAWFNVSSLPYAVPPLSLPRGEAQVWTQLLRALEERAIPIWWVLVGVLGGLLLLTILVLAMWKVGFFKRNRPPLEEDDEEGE
T1 sequence (P05106 27-788): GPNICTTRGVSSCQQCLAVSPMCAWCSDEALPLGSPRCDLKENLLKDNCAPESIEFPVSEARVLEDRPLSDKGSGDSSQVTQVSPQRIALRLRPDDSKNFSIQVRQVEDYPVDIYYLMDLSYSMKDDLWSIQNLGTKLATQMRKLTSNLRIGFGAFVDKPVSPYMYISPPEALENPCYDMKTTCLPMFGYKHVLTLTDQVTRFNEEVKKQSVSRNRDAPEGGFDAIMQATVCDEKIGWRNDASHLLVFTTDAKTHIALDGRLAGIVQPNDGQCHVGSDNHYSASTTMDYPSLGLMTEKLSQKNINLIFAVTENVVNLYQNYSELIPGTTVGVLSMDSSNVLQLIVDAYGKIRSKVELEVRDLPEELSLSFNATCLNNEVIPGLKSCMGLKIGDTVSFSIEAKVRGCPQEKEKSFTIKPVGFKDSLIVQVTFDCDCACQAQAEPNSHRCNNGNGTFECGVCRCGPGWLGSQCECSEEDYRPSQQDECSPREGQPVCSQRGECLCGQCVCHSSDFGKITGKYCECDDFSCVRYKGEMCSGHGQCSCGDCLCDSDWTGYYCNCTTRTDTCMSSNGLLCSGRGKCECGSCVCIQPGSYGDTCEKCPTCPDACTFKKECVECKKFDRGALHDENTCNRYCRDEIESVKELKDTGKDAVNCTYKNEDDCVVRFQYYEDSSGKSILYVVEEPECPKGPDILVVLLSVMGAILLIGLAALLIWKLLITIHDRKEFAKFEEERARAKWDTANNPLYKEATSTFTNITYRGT

Row | IC50 (GP IIb IIIa; [5]) [µM] | Compound | IC50 (GP IIb IIIa; [2]) [µM] | IC50 (GP IIb IIIa; [3]) [µM] | IC50 [1, 4] [µM] | IC50 ([1]; heparin, read-out: PA IC50 (μM) (heparin)) [µM]
1 |  | CC(CC(=O)O)N1CC(=O)N(C)c2ccc(C#CCCCNC(=N)N)cc2C1=O (stereo not shown) [Cmpd 38, 1-methyl-4-(2-carboxy-1-methylethyl)-7-(5-guanidino-1-pentynyl)-3,4-dihydro-1H-1,4, benzodiazepine-2,5-dione trifluroacetate] | 0.018 | 0.018 | 1.19 | 
2 |  | O=C(O)CCN1CC(=O)N(Cc2ccc(Cl)cc2)c2ccc(-c3ccc(N4CCNCC4)cc3)cc2C1=O [Cmpd 73, 1-(p-chlorobenzyl)-7-[4-(1-piperazine)phenyl]-4-(2-carboxyethyl)-3,4-dihydro-1H-1,4-benzodiazpine-2,4-dione trifluoroacetate] | 0.007 | 0.007 | 0.67 | 2.3
3 |  | N=C(N)NCCCCCc1ccc2c(c1)C(=O)N(CCC(=O)O)CC(=O)N2Cc1ccc2ccccc2c1 [Cmpd 75, 1-(2-napthyl)methyl-4-(2-carboxyethyl)-7-(5-guanidinopentyl)-3,4-dihydro-1H-1,4-benzodiazepine-2,5-dione trifluoroacetate] | 0.011 | 0.011 | 6.88 | 
4 |  | NCCCCCc1ccc2c(c1)C(=O)N(CCC(=O)O)CC(=O)N2Cc1ccc2ccccc2c1 [Cmpd 76, 1-(2-napthyl)methyl-4-(2-carboxyethyl)-7-(5-aminopentyl)-3,4-dihydro-1H-1,4-benzodiazepine-2,5-dione trifluoroacetate] | 0.077 | 0.077 | 28.9 | 
5 |  | N=C(N)NCCCCCc1ccc2c(c1)C(=O)N(CCC(=O)O)CC(=O)N2Cc1cccc2ccccc12 [Cmpd 77, 1-(1-napthyl)methyl-4-(2-carboxyethyl)-7-(5-guanidinopentyl)-3,4-dihydro-1H-1,4-benzodiazepine-2,5-dione trifluoroacetate] | 0.008 | 0.008 | 2.65 | 
6 |  | NCCCCCc1ccc2c(c1)C(=O)N(CCC(=O)O)CC(=O)N2Cc1cccc2ccccc12 [Cmpd 78, 1-(1-napthyl)methyl-4-(2-carboxyethyl)-7-(5-aminopentyl)-3,4-dihydro-1H-1,4-benzodiazepine-2,5-dione trifluoroacetate] | 0.066 | 0.066 | 6.53 | 
7 |  | COc1ccc(CN2C(=O)CN(CCC(=O)O)C(=O)c3cc(CCCCCCN)ccc32)cc1 [Cmpd 81, 1-(p-methoxybenzyl)-4-(2-carboxyethyl)-7-(6-aminohexyl)-3,4-dihydro-1H-1,4-benzodiazepine-2,5-dione trifluoroacetate] | 0.023 | 0.023 | 0.98 | 
8 |  | NCCCCCCc1ccc2c(c1)C(=O)N(CCC(=O)O)CC(=O)N2Cc1cccc2ccccc12 [Cmpd 82, 1-(1-napthyl)methyl-4-(2-carboxyethyl)-7-(6-aminohexyl)-3,4-dihydro-1H-1,4-benzodiazepine-2,5-dione trifluoroacetate] | 0.015 | 0.015 | 0.76 | 
9 |  | NCCCCCCc1ccc2c(c1)C(=O)N(CCC(=O)O)CC(=O)N2Cc1ccc2ccccc2c1 [Cmpd 83, 1-(2-napthyl)methyl-4-(2-carboxyethyl)-7-(6-aminohexyl)-3,4-dihydro-1H-1,4-benzodiazepine-2,5-dione trifluoroacetate] | 0.017 | 0.017 | 3.19 | 
10 | 0.552 | N=C(N)NCC#Cc1cccc(C(=O)NCCC(=O)O)c1 [Cmpd 159] |  |  |  | 
11 | 1.01 | N=C(N)NCCC#Cc1cccc(C(=O)NCCC(=O)O)c1 [Cmpd 160] |  |  |  | 
12 | 9 | NCCCC#Cc1cccc(C(=O)NCCC(=O)O)c1 [Cmpd 161] |  |  |  | 
13 | 1 | N=C(N)NCCCC#Cc1cccc(C(=O)NCCC(=O)O)c1 [Cmpd 162] |  |  |  | 
14 | 2.7 | NCCCCC#Cc1cccc(C(=O)NCCC(=O)O)c1 [Cmpd 163] |  |  |  | 
15 | 3.4 | N=C(N)NCCCCC#Cc1cccc(C(=O)NCCC(=O)O)c1 [Cmpd 164] |  |  |  | 
